Reference: patent US10093627B2, “Tetrahydroquinoline derivatives and their use as Epac inhibitors” (Institut National de la Sante et de la Recherche Medicale …, priority 2012, dated 2018)

Columns and labels:
Epac1 [1] = target: T1, Epac1 (Homo sapiens, UniProt O95398); assay: In vitro GEF activity (initial velocity of GDP exchange on Rap1A) of Epac1; type: biochemical; conditions: for Antagonism of cAMP-activated Epac1 GEF activity: compound 30 μM, 300 μM cAMP, FIG. 6C; for EC50: Epac1 GEF activity toward Rap1, Epac1 activated by 20 μM 007, mean of n=4 to 9 independent determinations; for Dose-response curve of inhibition of 007-activated Epac1 GEF activity, comparison between compounds: Epac1 activated by 20 μM 007, FIG. 5
T1 construct: Recombinant human Epac1 (residues 149-881), deleted of its Dishevelled, Egl-10, and Pleckstrin (DEP) domain; made in house
T1 sequence (O95398 149-881 isoform O95398-3): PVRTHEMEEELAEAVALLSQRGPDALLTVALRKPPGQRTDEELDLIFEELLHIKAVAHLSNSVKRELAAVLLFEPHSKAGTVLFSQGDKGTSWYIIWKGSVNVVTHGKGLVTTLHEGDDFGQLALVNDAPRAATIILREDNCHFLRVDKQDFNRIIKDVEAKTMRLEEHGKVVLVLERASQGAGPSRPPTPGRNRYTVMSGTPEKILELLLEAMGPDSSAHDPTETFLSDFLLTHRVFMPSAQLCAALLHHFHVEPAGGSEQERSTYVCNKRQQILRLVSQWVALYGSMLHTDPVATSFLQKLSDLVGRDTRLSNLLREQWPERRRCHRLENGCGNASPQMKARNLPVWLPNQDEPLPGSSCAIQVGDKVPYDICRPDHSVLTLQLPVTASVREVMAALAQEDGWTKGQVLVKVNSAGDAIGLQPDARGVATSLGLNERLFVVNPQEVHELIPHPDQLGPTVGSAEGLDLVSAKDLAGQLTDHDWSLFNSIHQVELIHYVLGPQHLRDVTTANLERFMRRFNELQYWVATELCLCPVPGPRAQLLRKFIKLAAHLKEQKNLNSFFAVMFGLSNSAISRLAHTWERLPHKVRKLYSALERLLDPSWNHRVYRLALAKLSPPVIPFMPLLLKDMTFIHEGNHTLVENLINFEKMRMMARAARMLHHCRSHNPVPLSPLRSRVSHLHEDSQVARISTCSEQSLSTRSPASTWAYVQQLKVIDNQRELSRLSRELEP
Protocol: Protein NCBI Reference Sequences for human Epac1 and Epac2 are NP_006096 and NP_008954, respectively. Recombinant human Epac1 (residues 149-881), deleted of its Dishevelled, Egl-10, and Pleckstrin (DEP) domain, and human Rap1A were produced with GST as a fusion tag (D. Courilleau et al., Identification of a tetrahydroquinoline analog as a pharmacological inhibitor of the cAMP-binding protein Epac, J. Biol. Chem. 287 (2012) 44192-44202).
(§1) In vitro GDP exchange catalyzed by Epac was measured using purified recombinant Epac isoforms and Rap1A loaded with Bodipy-GDP, as described in D. Courilleau, et al (above mentioned). The GEF activity of Epac proteins was initiated by injection of the agonist. Stock solutions of CE3F4 and its analogs (12 mM in 100% DMSO) were kept at −20° C. and were diluted in assay buffer (0.67% final DMSO concentration) just before use for GDP exchange assays. The release of Bodipy-GDP was measured in real time as the decay of fluorescence. A single exponential was fit to the time-course data using the Graphpad Prism program. The initial velocity (Vi) of GDP exchange on Rap1 was calculated as described in D. Courilleau et al.).
(§2) Data are expressed as mean±S.D. Differences in quantitative variables were examined by unpaired one- or two-tailed Student's t test. EC50 and IC50 values were computed according to a four-parameters dose-response model and compared on the basis of the extra sum-of square F test, using Graphpad Prism. Two-tailed Wilcoxon matched-pair signed rank tests were performed using GraphPad Prism.

Epac2(B) = target: T2, Epac2(B) (Homo sapiens, UniProt Q8WZA2); assay: In vitro GEF activity (initial velocity of GDP exchange on Rap1A) of Epac2(B); type: biochemical; conditions: for Antagonism of cAMP-activated Epac2(B) GEF activity: compound 30 μM, 300 μM cAMP, FIG. 6C
T2 construct: Human Epac2(B) (amino acids 283-1011) lacks the first 283 amino acids of Epac2; made in house; host or cells: Escherichia coli Rosetta 2(DE3)
T2 sequence (Q8WZA2 283-1011): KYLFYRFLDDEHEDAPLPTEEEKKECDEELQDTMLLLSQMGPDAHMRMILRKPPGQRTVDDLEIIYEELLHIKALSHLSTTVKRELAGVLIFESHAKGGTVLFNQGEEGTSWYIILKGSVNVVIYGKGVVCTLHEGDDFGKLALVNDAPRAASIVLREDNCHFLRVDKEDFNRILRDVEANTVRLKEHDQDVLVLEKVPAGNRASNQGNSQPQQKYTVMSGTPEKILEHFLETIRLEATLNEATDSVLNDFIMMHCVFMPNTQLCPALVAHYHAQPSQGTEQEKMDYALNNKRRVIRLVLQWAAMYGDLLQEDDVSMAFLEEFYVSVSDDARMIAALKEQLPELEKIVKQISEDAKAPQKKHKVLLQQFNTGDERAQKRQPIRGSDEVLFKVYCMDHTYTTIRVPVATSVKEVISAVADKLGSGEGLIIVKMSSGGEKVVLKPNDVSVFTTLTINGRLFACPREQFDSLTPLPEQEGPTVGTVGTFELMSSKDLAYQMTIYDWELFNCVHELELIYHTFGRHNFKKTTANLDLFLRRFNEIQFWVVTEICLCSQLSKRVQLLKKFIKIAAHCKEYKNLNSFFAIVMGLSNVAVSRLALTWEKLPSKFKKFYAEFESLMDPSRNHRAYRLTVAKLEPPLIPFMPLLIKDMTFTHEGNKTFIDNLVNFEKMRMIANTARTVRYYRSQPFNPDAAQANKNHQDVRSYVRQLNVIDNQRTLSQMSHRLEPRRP
Text: Human Epac2(AB) (amino acids 43-1011) carries both the CNB-A and the CNB-B domains. Human Epac2(B) (amino acids 283-1011) lacks the first 283 amino acids of Epac2. It is therefore deleted of its CNB-A and DEP domains, but retains the CNB-B domain and the full catalytic region. Epac2(AB) was obtained by HindIII/NotI restriction and Epac2(B) was obtained by Ssp1/Not1 restriction of a human Epac2A cDNA (a gift from Ann M Graybiel, Department of Brain and Cognitive Sciences, MIT, Cambridge). Both cDNA fragments were inserted into pET41a (Novagen), expressed in Escherichia coli Rosetta 2(DE3) (Novagen), and the GST-tagged fusion proteins were purified by nickel-nitrilotriacetic acid beads (Qiagen), as described in D. Courilleau, et al., Identification of a tetrahydroquinoline analog as a pharmacological inhibitor of the cAMP-binding protein Epac, J. Biol. Chem. 287 (2012) 44192-44202).
as §1, §2

[2] = test system: Epac1-induced Rap1 activation in HEK293 cells; assay: Epac1-induced Rap1 activation, Rap1-GTP pull-down in HEK293 cells; type: cell-based; conditions: HEK293 cells overexpressing Epac1 vs empty vector; FIG. 2A
Protocol: HEK293 cells were transfected with either pcDNA3 control vector or Epac1 (see FIG. 2A).
HEK293 cells were transfected with Epac1 and 24 h after transfection, cells were preincubated or not with CE3F4 for 30 min and were then treated or not with Sp-007 (10 μM) for 10 min (see FIG. 2B).
HEK293 cells overexpressing β1AR (Beta-1 adrenergic receptors) and transfected with Epac1 were pretreated or not with CE3F4 and stimulated or not with Iso (10 μM) for 10 min (see FIG. 2C).
Amounts of Rap1-GTP were determined by pull-down assays (see Material and Methods). The bar graph represents the mean±S.E.M. of 5 (FIG. 2A, 2B) or 3 (FIG. 2C) independent experiments. Results are expressed as the percentage of unstimulated control cells.
Ras and Rap1 pull-down experiments were performed using a GST fusion protein containing respectively the Ras binding domain of Raf1-RBD and the Rap1 binding domain of Ral-GDS as previously described (Métrich et al., 2008). Cells were starved for 1 h before stimulation in MEM free with penicillin-streptomycin (1%). After stimulation, cells were lysed in RIPA buffer (50 mM Tris-HCl, pH 7.5; 500 mM NaCl; 20 mM MgCl2; 0.5% deoxycholic acid; 0.1% SDS; 1% Triton X-100; 1 mM PMSF; protease and phosphatase inhibitors) and 500 μg of protein were incubated with either GST-Raf1-RBD (for Ras) or Ral-GDS (for Rap1) coupled to glutathione-Sepharose beads (Amersham Biosciences) for 1h at 4° C. Beads were then washed three times in washing buffer (50 mM Tris-HCl, pH 7.5; 150 mM NaCl, 20 mM MgCl2, 1% Triton X-100; 0.1 mM PMSF; protease and phosphatase inhibitors). Rap1-GTP or Ras samples and corresponding total lysates were separated on SDS-PAGE gels and transferred onto a polyvinylidene difluoride (PVDF) membrane (Amersham Pharmacia Biotech).

Epac1 [3] = target: T1, Epac1; assay: Epac1 nucleotide exchange activity, multipoint (time-course) method, bGDP-loaded GST-Rap1A; type: biochemical; conditions: 25 μM compound 009; 2 μM compound 007; FIG. 1
Protocol: Epac1 nucleotide exchange activity was measured: • in the absence of compound 007, • or in the presence of 2 μM of compound 007, either alone or with 25 μM of compound 009, • or with 20 μM of CE3F4.
Variations of RFU (Relative Fluorescence Units) were studied as a function of time and fitted to single exponentials. Reported values are mean±SEM (n=3). (see Materiel and Methods).
Concerning FIG. 1, a “multipoint” (time-course) method was used. All components except the agonist (007) were mixed in a well and the exchange activity of Epac1 was initiated by injection of the agonist. GST-Rapt was preloaded with a fluorescent derivative of GDP, and the Epac1-catalyzed nucleotide exchange was measured using a large excess of non-fluorescent GDP, by taking advantage of the spectroscopic difference between free and Rap1-bound fluorescently labeled GDP. The principle of the method is similar to that reported in particular by Van den Berghe et al. (1997; Oncogene 15, 845), except that Bodipy FL-labeled GDP (bGDP) was used here, rather than 2′,3′-bis(O)—N-methylanthraniloyl-GDP (mant-GDP). […]

SMILES	Antagonism of cAMP-activated Epac1 GEF activity (Epac1 [1])	Antagonism of cAMP-activated Epac2(B) GEF activity (Epac2(B))	also measured
CC1CCc2c(ccc(F)c2Br)N1C=O (stereo not shown) [a)]	antagonistic properties	antagonistic properties	–
CO[C@H]1C2OP(O)(=S)OC[C@H]2O[C@H]1n1c(Sc2ccc(Cl)cc2)nc2c(N)ncnc21 (stereo partly shown) [Sp-007, Sp-8-pCPT-2′-O-Me-cAMPS, reference compound]	–	–	Rap1 activation (Rap1-GTP/Total Rap1) by agonist [2]: robust activation of Rap1
CC(=O)N1c2cc(Br)c(F)c(Br)c2CCC1C (stereo not shown) [g)]	antagonistic properties	–	–
CC1CCc2c(cc(Br)c(F)c2Br)N1 (stereo not shown) [h)]	antagonistic properties	–	–
O=CN1CCCc2c1cc(Br)c(F)c2Br [Compound f)]	antagonistic properties	antagonistic properties	EC50 (Epac1 [1]): 50 µM; Dose-response curve of inhibition of 007-activated Epac1 GEF activity, comparison between compounds (Epac1 [1]): not significantly different
C[C@@H]1CCc2c(cc(Br)c(F)c2Br)N1C=O [(R)-CE3F4]	–	–	IC50 smaller than that of racemic CE3F4 (Epac1 GEF activity) (Epac1 [1]; 007-activated Epac1): about 2 fold; IC50 smaller than the IC50 values of (S)-CE3F4 and compound f) (Epac1 GEF activity) (Epac1 [1]; 007-activated Epac1): about 10 fold; EC50 (Epac1 [1]): 5.8 µM; Dose-response curve of inhibition of 007-activated Epac1 GEF activity, comparison between compounds (Epac1 [1]): more potent Epac inhibitor; IC50 (Epac1 [1]; Epac1 activated by 300 μM cAMP): 4.2 µM; IC50 (Epac2(B); Epac2(B) activated by 300 μM cAMP): 44 µM
CC1CCc2c(Br)cc(Br)cc2N1C=O (stereo not shown) [e)]	antagonistic properties	antagonistic properties	–
CC1CCc2cc(F)c(Br)cc2N1C=O (stereo not shown) [b), reference compound]	no significant inhibitory activity	no significant inhibitory activity	–
Nc1nc2c(nc(Sc3ccc(Cl)cc3)n2[C@@H]2O[C@@H]3COP(=O)(O)O[C@H]3[C@H]2O)c(=O)[nH]1 [Compound 009, 8-(4-chlorophenylthio)-guanosine-3′,5′-cyclic monophosphate, reference compound]	–	–	Inhibition of the exchange reaction induced by Epac1 plus 007 (Epac1 [3]): inhibitory effect
CC1CCc2c(ccc(F)c2C=O)N1C=O (stereo not shown) [d), reference compound]	no significant inhibitory activity	no significant inhibitory activity	–
